Test results reported in patent US6541493B1, “Crystals of 5-[{6-(2-fluorobenzyl)oxy-2-naphthyl}methyl]-2,4-thiazolidinedione” (Mitsubishi Chemical Corporation, priority 1999, dated 2003).
“Also recorded” adds a separate entry of the source. One block for each compound: values may come before it.

Columns and labels:
Format in all cases: physicochemical
[1] = Thermal stability (oven heating, powder X-ray diffraction); settings: about 50 mg in glass bottle, under atmosphere in oven at 70° C. for 24 hours
Procedure: A sample (about 50 mg) of each of the crystals of types A, C and D was placed in a transparent glass bottle, and heated under atmosphere in an oven at 70° C. for 24 hours. After cooling, powder X-ray diffraction pattern was measured to examine a change of the crystal form.

[2] = Stability to physical impact (grinding in agate mortar, powder X-ray diffraction); settings: 1 g ground for 1 minute in agate mortar, powder X-ray diffraction pattern compared with before grinding
Procedure: A sample (1 g) of each of the type A-D crystals was placed in an agate mortar, and ground for 1 minute, and powder X-ray diffraction pattern of the ground sample was determined. The pattern was compared with that of the crystal form before the grinding to examine a change of the crystal form.

[3] = Stability in a solvent (heated with stirring in suspension); settings: heated with stirring in suspension in water, methylene chloride, hexane, ethyl acetate-hexane and ethanol
Description: The type A crystals were heated with stirring in a state of suspension in a variety of solvents including water, methylene chloride, hexane, ethyl acetate-hexane and ethanol, and then examined the absence or presence of a change of the crystal form after the treatment.

Change of the crystal form after heating ([1]; listed as type A): no change | Change after grinding ([2]; listed as A): No change | Change of the crystal form after treatment in solvents [3]: no change
SMILES: O=C1NC(=O)C(Cc2ccc3cc(OCc4ccccc4F)ccc3c2)S1 (centres unmarked) [Crystal form A, 5-[{6-(2-fluorobenzyl)oxy-2-naphthyl}methyl]-2,4-thiazolidinedione]

SMILES: O=C1NC(=O)C(Cc2ccc3cc(OCc4ccccc4F)ccc3c2)S1 (centres unmarked) [Crystal form B, 5-[{6-(2-fluorobenzyl)oxy-2-naphthyl}methyl]-2,4-thiazolidinedione]
Change after grinding ([2]; listed as B): Partial changes; also recorded: Partially changed

Change of the crystal form after heating ([1]; listed as type C): partial change | Change after grinding ([2]; listed as C): No change
SMILES: O=C1NC(=O)C(Cc2ccc3cc(OCc4ccccc4F)ccc3c2)S1 (centres unmarked) [Crystal form C, 5-[{6-(2-fluorobenzyl)oxy-2-naphthyl}methyl]-2,4-thiazolidinedione]

Change of the crystal form after heating [1]: no change
SMILES: O=C1NC(=O)C(Cc2ccc3cc(OCc4ccccc4F)ccc3c2)S1 (centres unmarked) [Crystal form D, 5-[{6-(2-fluorobenzyl)oxy-2-naphthyl}methyl]-2,4-thiazolidinedione]
Change after grinding ([2]; listed as D): Partial changes; also recorded: Partially changed
